Test results as given in ChEMBL document CHEMBL1201861, “Genomics of Drug Sensitity in Cancer screening data, Wellcome Trust Sanger Institute”.

Experiments:
Experiment in all cases: cells
CTV-1 = assay type: functional, cell-based; conditions: Homo sapiens;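 further: growth inhibition of the cell line, read out with a cell viability assay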
Description: SANGER: Inhibition of human CTV-1 cell growth in a cell viability assay.

DK-MG = assay type: functional, cell-based, Homo sapiens; conditions: Homo sapiens, DK-MG;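 further: growth inhibition of DK-MG cells, read out with a cell viability assay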
Description: SANGER: Inhibition of human DK-MG cell growth in a cell viability assay.

DOK = assay type: functional, cell-based, Homo sapiens; conditions: Homo sapiens, DOK;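 further: cell viability assay read-out, values reflect inhibition of cell growth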
Description: SANGER: Inhibition of human DOK cell growth in a cell viability assay.

G-402 = assay type: functional, cell-based, Homo sapiens; conditions: Homo sapiens, G-402
Description: SANGER: Inhibition of human G-402 cell growth in a cell viability assay.

GCT = assay type: functional, cell-based, Homo sapiens; conditions: Homo sapiens, GCT;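 further: GCT cell line proliferation inhibition, read out with a cell viability assay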
Description: SANGER: Inhibition of human GCT cell growth in a cell viability assay.

H4 = assay type: functional, cell-based; conditions: Homo sapiens
Description: SANGER: Inhibition of human H4 cell growth in a cell viability assay.

HAL-01 = assay type: functional, cell-based; conditions: Homo sapiens;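 further: growth inhibition of human HAL-01 cells, read out with a cell viability assay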
Description: SANGER: Inhibition of human HAL-01 cell growth in a cell viability assay.

HCC1395 = assay type: functional, cell-based, Homo sapiens; conditions: Homo sapiens, HCC1395;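 further: growth inhibition of HCC1395 cells, read out by a cell viability assay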
Description: SANGER: Inhibition of human HCC1395 cell growth in a cell viability assay.

HCC1806 = assay type: functional, cell-based, Homo sapiens; conditions: Homo sapiens, HCC1806;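 further: growth inhibition of the cancer cell line, determined with a cell viability assay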
Description: SANGER: Inhibition of human HCC1806 cell growth in a cell viability assay.

HH = assay type: functional, cell-based; conditions: Homo sapiens
Description: SANGER: Inhibition of human HH cell growth in a cell viability assay.

HuCCT-1 = assay type: functional, cell-based, Homo sapiens, HuCCT1; conditions: Homo sapiens, HuCCT-1;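 further: growth inhibition of HuCCT-1 cells, read out by a cell viability assay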
Description: SANGER: Inhibition of human HuCCT1 cell growth in a cell viability assay.

HuP-T4 = assay type: functional, cell-based, Homo sapiens; conditions: Homo sapiens, HuP-T4;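 further: cell viability assay measuring how much HuP-T4 cell growth is inhibited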
Description: SANGER: Inhibition of human HuP-T4 cell growth in a cell viability assay.

IA-LM = assay type: functional, cell-based, Homo sapiens; conditions: Homo sapiens, IA-LM;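 further: cell viability assay measuring growth inhibition of human IA-LM cells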
Description: SANGER: Inhibition of human IA-LM cell growth in a cell viability assay.

IST-SL1 = assay type: functional, cell-based, Homo sapiens; conditions: Homo sapiens, IST-SL1;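 further: growth inhibition of human IST-SL1 cells, read out with a cell viability assay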
Description: SANGER: Inhibition of human IST-SL1 cell growth in a cell viability assay.

JAR = assay type: functional, cell-based, Homo sapiens; conditions: Homo sapiens, JAR;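 further: growth inhibition of human JAR cells determined with a cell viability assay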
Description: SANGER: Inhibition of human JAR cell growth in a cell viability assay.

KARPAS-299 = assay type: functional, cell-based; conditions: Homo sapiens
Description: SANGER: Inhibition of human KARPAS-299 cell growth in a cell viability assay.

KM-H2 = assay type: functional, cell-based; conditions: Homo sapiens;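 further: growth inhibition of KM-H2 cells, read out by a cell viability assay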
Description: SANGER: Inhibition of human KM-H2 cell growth in a cell viability assay.

KM12 = assay type: functional, cell-based, Homo sapiens; conditions: Homo sapiens, KM12;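 further: KM12 cell growth inhibition, read out with a cell viability assay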
Description: SANGER: Inhibition of human KM12 cell growth in a cell viability assay.

KOSC-2 = assay type: functional, cell-based, Homo sapiens; conditions: Homo sapiens, KOSC-2;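 further: growth inhibition of KOSC-2 cells, read out by a cell viability assay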
Description: SANGER: Inhibition of human KOSC-2 cell growth in a cell viability assay.

KS-1 = assay type: functional, cell-based, Homo sapiens; conditions: Homo sapiens, KS-1;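 further: growth inhibition of KS-1 cells, read out with a cell viability assay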
Description: SANGER: Inhibition of human KS-1 cell growth in a cell viability assay.

KU812 cell line = assay type: functional, cell-based; conditions: Homo sapiens;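 further: growth inhibition of KU812 cells, read out with a cell viability assay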
Description: SANGER: Inhibition of human KU812 cell growth in a cell viability assay.

LAMA-84 = assay type: functional, cell-based; conditions: Homo sapiens;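 further: growth inhibition of LAMA-84 cells, read out with a cell viability assay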
Description: SANGER: Inhibition of human LAMA-84 cell growth in a cell viability assay.

LS-411N = assay type: functional, cell-based, Homo sapiens; conditions: Homo sapiens, LS-411N
MC116 = assay type: functional, cell-based; conditions: Homo sapiens;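 further: growth inhibition of MC116 cells, read out with a cell viability assay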
Description: SANGER: Inhibition of human MC116 cell growth in a cell viability assay.

MEL-HO = assay type: functional, cell-based, Homo sapiens; conditions: Homo sapiens, MEL-HO
Description: SANGER: Inhibition of human MEL-HO cell growth in a cell viability assay.

MFM-223 = assay type: functional, cell-based, Homo sapiens; conditions: Homo sapiens, MFM-223
Description: SANGER: Inhibition of human MFM-223 cell growth in a cell viability assay.

MG-63 = assay type: functional, cell-based, Homo sapiens; conditions: Homo sapiens, MG-63;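 further: growth inhibition of human MG-63 cells, read out with a cell viability assay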
Description: SANGER: Inhibition of human MG-63 cell growth in a cell viability assay.

NCI-H1581 = assay type: functional, cell-based, Homo sapiens; conditions: Homo sapiens, NCI-H1581;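 further: cell growth inhibition read out by a viability assay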
Description: SANGER: Inhibition of human NCI-H1581 cell growth in a cell viability assay.

NCI-H727 = assay type: functional, cell-based, Homo sapiens; conditions: Homo sapiens, NCI-H727;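 further: growth inhibition of human NCI-H727 cells, read out with a cell viability assay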
Description: SANGER: Inhibition of human NCI-H727 cell growth in a cell viability assay.

NTERA-2-cl-D1 = assay type: functional, cell-based, Homo sapiens; conditions: Homo sapiens, NTERA-2-cl-D1;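 further: inhibition of cell growth, measured with a cell viability assay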
Description: SANGER: Inhibition of human NTERA-S-cl-D1 cell growth in a cell viability assay.

OCI-AML2 = assay type: functional, cell-based; conditions: Homo sapiens;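 further: growth inhibition of OCI-AML2 cells, read out with a cell viability assay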
Description: SANGER: Inhibition of human OCI-AML2 cell growth in a cell viability assay.

OMC-1 = assay type: functional, cell-based, Homo sapiens; conditions: Homo sapiens, OMC-1;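 further: growth inhibition of the OMC-1 cell line, measured by a cell viability assay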
Description: SANGER: Inhibition of human OMC-1 cell growth in a cell viability assay.

OVCAR-4 = assay type: functional, cell-based, Homo sapiens; conditions: Homo sapiens, OVCAR-4;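 further: growth inhibition of human OVCAR-4 cells, measured with a cell viability assay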
Description: SANGER: Inhibition of human OVCAR-4 cell growth in a cell viability assay.

RPMI-7951 = assay type: functional, cell-based, Homo sapiens; conditions: Homo sapiens, RPMI-7951
Description: SANGER: Inhibition of human RPMI-7951 cell growth in a cell viability assay.

RT-112 = assay type: functional, cell-based, Homo sapiens; conditions: Homo sapiens, RT-112
Description: SANGER: Inhibition of human RT-112 cell growth in a cell viability assay.

SK-NEP-1 = assay type: functional, cell-based; conditions: Homo sapiens;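 further: growth inhibition of human SK-NEP-1 cells, read out by a cell viability assay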
Description: SANGER: Inhibition of human SK-NEP-1 cell growth in a cell viability assay.

SK-OV-3 = assay type: functional, cell-based, Homo sapiens; conditions: Homo sapiens, SK-OV-3;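 further: growth inhibition of SK-OV-3 human cells, read out with a cell viability assay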
Description: SANGER: Inhibition of human SK-OV-3 cell growth in a cell viability assay.

SW1783 = assay type: functional, cell-based; conditions: Homo sapiens;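 further: cell growth inhibition measured with a viability assay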
Description: SANGER: Inhibition of human SW1783 cell growth in a cell viability assay.

697 = assay type: functional, cell-based; conditions: Homo sapiens
Description: SANGER: Inhibition of human 697 cell growth in a cell viability assay.

A204 = assay type: functional, cell-based, Homo sapiens; conditions: Homo sapiens, A204;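 further: growth inhibition of human A204 cells, read out with a cell viability assay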
Description: SANGER: Inhibition of human A204 cell growth in a cell viability assay.

A-375 = assay type: functional, cell-based, Homo sapiens; conditions: Homo sapiens, A-375;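 further: growth inhibition of A375 cells, read out with a cell viability assay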
Description: SANGER: Inhibition of human A375 cell growth in a cell viability assay.

A-431 = assay type: functional, cell-based, Homo sapiens; conditions: Homo sapiens, A-431;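 further: growth inhibition of A-431 cells, determined with a cell viability read-out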
Description: SANGER: Inhibition of human A431 cell growth in a cell viability assay.

BE-13 = assay type: functional, cell-based; conditions: Homo sapiens;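 further: growth inhibition of human BE-13 cells, measured with a cell viability assay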
Description: SANGER: Inhibition of human BE-13 cell growth in a cell viability assay.

BEN = assay type: functional, cell-based, Homo sapiens; conditions: Homo sapiens, BEN;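 further: growth inhibition of the BEN cell line, read out with a cell viability assay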
Description: SANGER: Inhibition of human BEN cell growth in a cell viability assay.

BFTC-905 = assay type: functional, cell-based, Homo sapiens; conditions: Homo sapiens, BFTC-905
Description: SANGER: Inhibition of human BFTC-905 cell growth in a cell viability assay.

CAL-33 = assay type: functional, cell-based, Homo sapiens; conditions: Homo sapiens, CAL-33;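 further: growth inhibition of CAL-33 cells, read out with a cell viability assay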
Description: SANGER: Inhibition of human CAL-33 cell growth in a cell viability assay.

CAL-85-1 = assay type: functional, cell-based; conditions: Homo sapiens;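 further: growth inhibition of human CAL-85-1 cells, read out with a cell viability assay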
Description: SANGER: Inhibition of human CAL-85-1 cell growth in a cell viability assay.

TE-10 = assay type: functional, cell-based, Homo sapiens; conditions: Homo sapiens, TE-10;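 further: growth inhibition of TE-10 cells, measured by a cell viability assay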
Description: SANGER: Inhibition of human TE-10 cell growth in a cell viability assay.

U-87 MG = assay type: functional, cell-based, U-87MG ATCC; conditions: Homo sapiens;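 further: growth inhibition of the cells measured with a viability assay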
Description: SANGER: Inhibition of human U-87-MG cell growth in a cell viability assay.

UO-31 = assay type: functional, cell-based; conditions: Homo sapiens;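 further: cell viability assay measuring inhibition of cell growth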
Description: SANGER: Inhibition of human U031 cell growth in a cell viability assay.

UACC-257 = assay type: functional, cell-based, Homo sapiens; conditions: Homo sapiens, UACC-257
Description: SANGER: Inhibition of human UACC-257 cell growth in a cell viability assay.

CAMA-1 = assay type: functional, cell-based, Homo sapiens; conditions: Homo sapiens, CAMA-1;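 further: growth inhibition of CAMA-1 cells, read out with a cell viability assay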
Description: SANGER: Inhibition of human CAMA-1 cell growth in a cell viability assay.

Q: Which results are given for `COc1cc([C@@H]2c3cc4c(cc3[C@@H](O[C@@H]3O[C@@H]5CO[C@@H](C)O[C@H]5[C@H](O)[C@H]3O)[C@H]3COC(=O)[C@H]23)OCO4)cc(OC)c1O` [ETOPOSIDE]?
A: IC50 (CTV-1): 410 nM; IC50 (DK-MG): > 16000 nM; IC50 (DOK): > 16000 nM; IC50 (G-402): 898 nM; IC50 (GCT): 3270 nM; IC50 (H4): 297 nM; IC50 (HAL-01): 3800 nM; IC50 (HCC1395): > 16000 nM; IC50 (HCC1806): 4730 nM; IC50 (HH): 4440 nM; IC50 (HuCCT-1): 1910 nM; IC50 (HuP-T4): 1450 nM; IC50 (IA-LM): 3440 nM; IC50 (IST-SL1): > 16000 nM; IC50 (JAR): > 16000 nM; IC50 (KARPAS-299): > 16000 nM; IC50 (KM-H2): 1670 nM; IC50 (KM12): 1880 nM; IC50 (KOSC-2): > 16000 nM; IC50 (KS-1): 334 nM; IC50 (KU812 cell line): 2030 nM; IC50 (LAMA-84): 9210 nM; IC50 (LS-411N): 925 nM; IC50 (MC116): > 16000 nM; IC50 (MEL-HO): 729 nM; IC50 (MFM-223): > 16000 nM; IC50 (MG-63): 1180 nM; IC50 (NCI-H1581): > 16000 nM; IC50 (NCI-H727): > 16000 nM; IC50 (NTERA-2-cl-D1): 25 nM; IC50 (OCI-AML2): 559 nM; IC50 (OMC-1): > 16000 nM; IC50 (OVCAR-4): > 16000 nM; IC50 (RPMI-7951): 2290 nM; IC50 (RT-112): 621 nM; IC50 (SK-NEP-1): 1900 nM; IC50 (SK-OV-3): 10800 nM; IC50 (SW1783): 3060 nM; IC50 697: 243 nM; IC50 (A204): 232 nM; IC50 (A-375): 631 nM; IC50 (A-431): 798 nM; IC50 (BE-13): 504 nM; IC50 (BEN): > 16000 nM; IC50 (BFTC-905): 426 nM; IC50 (CAL-33): 686 nM; IC50 (CAL-85-1): 2160 nM; IC50 (TE-10): 2380 nM; IC50 (U-87 MG): > 16000 nM; IC50 (UO-31): 11300 nM; IC50 (UACC-257): > 16000 nM; IC50 (CAMA-1): 13000 nM

Q: For `Cc1cnc(-c2cnc(NCCNc3ccc(C#N)cn3)nc2-c2ccc(Cl)cc2Cl)[nH]1` [LADUVIGLUSIB], which IC50 (CTV-1) is on record?
A: Its IC50 is greater than 2560 nM.

Q: And the IC50 (DK-MG)?
A: Its IC50 is greater than 2560 nM.

Q: What about the IC50 (DOK) of the same compound?
A: The IC50 was greater than 2560 nM.

Q: And the IC50 (G-402)?
A: Its IC50 is greater than 2560 nM.

Q: And the IC50 (GCT)?
A: The IC50 was 307 nM.

Q: What about the IC50 (H4) of the same compound?
A: The IC50 was greater than 2560 nM.

Q: And the IC50 (HAL-01)?
A: Its IC50 is greater than 2560 nM.

Q: And the IC50 (HCC1395)?
A: Its IC50 is 1780 nM.

Q: What about the IC50 (HCC1806) of the same compound?
A: The IC50 was greater than 2560 nM.

Q: What about the IC50 (HH) of the same compound?
A: Its IC50 is greater than 2560 nM.

Q: What about the IC50 (HuCCT-1) of the same compound?
A: The IC50 was greater than 2560 nM.

Q: What about the IC50 (HuP-T4) of the same compound?
A: The IC50 was greater than 2560 nM.

Q: And the IC50 (IA-LM)?
A: Its IC50 is greater than 2560 nM.

Q: And the IC50 (IST-SL1)?
A: The IC50 was greater than 2560 nM.

Q: What about the IC50 (JAR) of the same compound?
A: The IC50 was greater than 2560 nM.

Q: What about the IC50 (KARPAS-299) of the same compound?
A: Its IC50 is greater than 2560 nM.

Q: And the IC50 (KM-H2)?
A: Its IC50 is greater than 2560 nM.

Q: What about the IC50 (KM12) of the same compound?
A: The IC50 was greater than 2560 nM.

Q: What about the IC50 (KOSC-2) of the same compound?
A: Its IC50 is greater than 2560 nM.

Q: And the IC50 (KS-1)?
A: Its IC50 is greater than 2560 nM.

Q: And the IC50 (KU812 cell line)?
A: Its IC50 is greater than 2560 nM.

Q: What about the IC50 (LAMA-84) of the same compound?
A: The IC50 was greater than 2560 nM.

Q: And the IC50 (LS-411N)?
A: Its IC50 is greater than 2560 nM.

Q: And the IC50 (MC116)?
A: Its IC50 is greater than 2560 nM.

Q: What about the IC50 (MEL-HO) of the same compound?
A: Its IC50 is greater than 2560 nM.

Q: And the IC50 (MFM-223)?
A: The IC50 was greater than 2560 nM.

Q: What about the IC50 (MG-63) of the same compound?
A: The IC50 was greater than 2560 nM.

Q: And the IC50 (NCI-H1581)?
A: Its IC50 is greater than 2560 nM.

Q: And the IC50 (NCI-H727)?
A: Its IC50 is greater than 2560 nM.

Q: And the IC50 (NTERA-2-cl-D1)?
A: The IC50 was greater than 2560 nM.

Q: And the IC50 (OCI-AML2)?
A: Its IC50 is greater than 2560 nM.

Q: What about the IC50 (OMC-1) of the same compound?
A: The IC50 was greater than 2560 nM.

Q: What about the IC50 (OVCAR-4) of the same compound?
A: The IC50 was greater than 2560 nM.

Q: What about the IC50 (RPMI-7951) of the same compound?
A: Its IC50 is greater than 2560 nM.

Q: What about the IC50 (RT-112) of the same compound?
A: Its IC50 is greater than 2560 nM.

Q: And the IC50 (SK-NEP-1)?
A: The IC50 was greater than 2560 nM.

Q: What about the IC50 (SK-OV-3) of the same compound?
A: Its IC50 is greater than 2560 nM.

Q: And the IC50 (SW1783)?
A: Its IC50 is greater than 2560 nM.

Q: And the IC50 697?
A: The IC50 was greater than 2560 nM.

Q: And the IC50 (A204)?
A: The IC50 was greater than 2560 nM.

Q: And the IC50 (A-375)?
A: The IC50 was greater than 2560 nM.

Q: And the IC50 (A-431)?
A: Its IC50 is greater than 2560 nM.

Q: And the IC50 (BE-13)?
A: The IC50 was greater than 2560 nM.

Q: And the IC50 (BEN)?
A: Its IC50 is greater than 2560 nM.

Q: What about the IC50 (BFTC-905) of the same compound?
A: Its IC50 is greater than 2560 nM.

Q: What about the IC50 (CAL-33) of the same compound?
A: The IC50 was greater than 2560 nM.

Q: And the IC50 (CAL-85-1)?
A: Its IC50 is greater than 2560 nM.

Q: What about the IC50 (TE-10) of the same compound?
A: The IC50 was greater than 2560 nM.

Q: And the IC50 (U-87 MG)?
A: The IC50 was greater than 2560 nM.

Q: What about the IC50 (UO-31) of the same compound?
A: The IC50 was greater than 2560 nM.

Q: And the IC50 (UACC-257)?
A: The IC50 was greater than 2560 nM.

Q: And the IC50 (CAMA-1)?
A: Its IC50 is greater than 2560 nM.
